Measured values: ChEMBL document CHEMBL3588744, “Structure-Based Optimization of Naphthyridones into Potent ATAD2 Bromodomain Inhibitors” (J Med Chem, 2015)
≈ marks a conversion by molar mass, not a printed value.

Columns and labels:
[1] = target: T1, ATPase family AAA domain-containing protein 2 (Homo sapiens, UniProt Q6PL18)
T1 sequence (Q6PL18 whole entry): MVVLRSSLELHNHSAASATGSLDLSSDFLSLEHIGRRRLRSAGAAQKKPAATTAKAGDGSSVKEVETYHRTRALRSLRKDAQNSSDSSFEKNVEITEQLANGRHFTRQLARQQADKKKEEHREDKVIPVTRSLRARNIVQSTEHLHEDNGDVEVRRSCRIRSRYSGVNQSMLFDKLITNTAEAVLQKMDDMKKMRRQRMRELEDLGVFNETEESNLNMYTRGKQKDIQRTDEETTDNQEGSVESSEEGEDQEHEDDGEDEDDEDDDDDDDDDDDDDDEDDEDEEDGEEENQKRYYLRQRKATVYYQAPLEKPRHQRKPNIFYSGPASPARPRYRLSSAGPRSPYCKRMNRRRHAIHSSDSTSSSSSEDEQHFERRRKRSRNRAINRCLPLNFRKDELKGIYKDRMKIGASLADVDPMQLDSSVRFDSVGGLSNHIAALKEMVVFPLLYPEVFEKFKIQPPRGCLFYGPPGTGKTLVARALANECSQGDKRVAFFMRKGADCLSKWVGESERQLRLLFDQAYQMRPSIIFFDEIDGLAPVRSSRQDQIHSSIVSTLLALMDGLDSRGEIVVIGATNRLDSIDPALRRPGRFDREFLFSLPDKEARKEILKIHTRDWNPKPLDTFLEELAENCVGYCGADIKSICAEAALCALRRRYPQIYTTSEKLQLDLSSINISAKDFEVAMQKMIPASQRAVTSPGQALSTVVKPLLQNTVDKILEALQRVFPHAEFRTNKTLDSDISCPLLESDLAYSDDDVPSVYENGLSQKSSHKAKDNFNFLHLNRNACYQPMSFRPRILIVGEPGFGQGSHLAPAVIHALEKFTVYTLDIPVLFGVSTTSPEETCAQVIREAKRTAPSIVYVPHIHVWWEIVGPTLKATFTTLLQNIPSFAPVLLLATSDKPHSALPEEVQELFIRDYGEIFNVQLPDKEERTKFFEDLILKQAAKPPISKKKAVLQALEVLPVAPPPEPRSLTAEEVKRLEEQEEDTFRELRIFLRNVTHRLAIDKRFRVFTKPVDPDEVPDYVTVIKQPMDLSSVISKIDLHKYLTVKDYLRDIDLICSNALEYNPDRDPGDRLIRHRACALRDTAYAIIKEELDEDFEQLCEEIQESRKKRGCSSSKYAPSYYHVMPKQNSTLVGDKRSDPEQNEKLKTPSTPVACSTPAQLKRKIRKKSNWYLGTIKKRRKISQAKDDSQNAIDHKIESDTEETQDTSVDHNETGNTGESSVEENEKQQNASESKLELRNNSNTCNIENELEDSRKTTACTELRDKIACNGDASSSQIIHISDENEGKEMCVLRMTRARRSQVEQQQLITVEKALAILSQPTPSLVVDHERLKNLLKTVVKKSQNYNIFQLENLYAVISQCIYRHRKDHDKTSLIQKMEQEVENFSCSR

[2] = Permeability across phosphatidyl choline membrane at pH 7.4 after 3 hrs by HPLC with UV detection method; assay type: ADME; details: not told, read-out: permeability
[3] = physchem; details: phosphate buffered saline, pH 7.4, solubility
Description: Solubility of the compound in phosphate buffered saline at pH 7.4 after 1 hr by CLND method

[4] = target: T1, ATPase family AAA domain-containing protein 2; remark: listed apart in the source
Description: Displacement of histone H4 peptide from FLAG-6His-Tev-ATAD2 (981 to 1121) (unknown origin) expressed in Escherichia coli BL21 (DE3) after 30 mins by TR-FRET analysis relative to control

[5] = target: Bromodomain-containing protein 4 (Homo sapiens, UniProt O60885, Y390A)
[6] = target: T2, Bromodomain-containing protein 3 (Homo sapiens, UniProt Q15059); test: Binding affinity to BRD3 containing BD2 bromodomains (unknown origin) by TR-FRET assay
T2 sequence (Q15059 whole entry): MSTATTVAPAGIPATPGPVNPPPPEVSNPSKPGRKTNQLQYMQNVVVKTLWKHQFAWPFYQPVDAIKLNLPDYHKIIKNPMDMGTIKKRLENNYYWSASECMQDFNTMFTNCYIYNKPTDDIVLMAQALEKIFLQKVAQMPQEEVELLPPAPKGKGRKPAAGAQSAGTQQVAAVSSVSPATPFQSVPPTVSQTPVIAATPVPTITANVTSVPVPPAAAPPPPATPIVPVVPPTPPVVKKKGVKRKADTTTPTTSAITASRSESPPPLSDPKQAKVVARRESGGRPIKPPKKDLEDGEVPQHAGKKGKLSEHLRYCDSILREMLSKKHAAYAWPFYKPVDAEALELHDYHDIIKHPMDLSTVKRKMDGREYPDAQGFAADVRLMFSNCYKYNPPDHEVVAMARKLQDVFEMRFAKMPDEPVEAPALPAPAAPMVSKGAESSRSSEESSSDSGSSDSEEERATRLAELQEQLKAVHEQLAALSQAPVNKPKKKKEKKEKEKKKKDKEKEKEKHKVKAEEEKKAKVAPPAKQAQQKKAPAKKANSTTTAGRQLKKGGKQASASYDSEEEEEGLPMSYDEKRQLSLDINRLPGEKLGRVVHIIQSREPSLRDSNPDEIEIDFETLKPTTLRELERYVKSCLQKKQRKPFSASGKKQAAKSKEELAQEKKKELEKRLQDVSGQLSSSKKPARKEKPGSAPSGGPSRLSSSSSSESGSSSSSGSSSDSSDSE

[7] = target: T2, Bromodomain-containing protein 3; test: Binding affinity to BRD3 containing BD1 bromodomains (unknown origin) by TR-FRET assay
[8] = Distribution coefficient, log D of the compound at pH 7.4 by chromatographic method; assay type: physicochemical; details: octanol/water
[9] = target: T3, Bromodomain testis-specific protein (Homo sapiens, UniProt Q58F21); test: Binding affinity to BRDt containing BD2 bromodomains (unknown origin) by TR-FRET assay
[10] = target: T4, Bromodomain-containing protein 4 (Homo sapiens, UniProt O60885); test: Binding affinity to BRD4 containing BD2 bromodomains (unknown origin) by TR-FRET assay
[11] = target: T4, Bromodomain-containing protein 4; test: Binding affinity to BRD4 containing BD1 bromodomains (unknown origin) by TR-FRET assay
[12] = target: T5, Peregrin (Homo sapiens, UniProt P55201); test: Binding affinity to BRPF1 in human HUT78 cells incubated for 45 mins by mass spectrometry based bromosphere chemoproteomic assay; assay type: cell-based
T5 sequence (P55201 whole entry): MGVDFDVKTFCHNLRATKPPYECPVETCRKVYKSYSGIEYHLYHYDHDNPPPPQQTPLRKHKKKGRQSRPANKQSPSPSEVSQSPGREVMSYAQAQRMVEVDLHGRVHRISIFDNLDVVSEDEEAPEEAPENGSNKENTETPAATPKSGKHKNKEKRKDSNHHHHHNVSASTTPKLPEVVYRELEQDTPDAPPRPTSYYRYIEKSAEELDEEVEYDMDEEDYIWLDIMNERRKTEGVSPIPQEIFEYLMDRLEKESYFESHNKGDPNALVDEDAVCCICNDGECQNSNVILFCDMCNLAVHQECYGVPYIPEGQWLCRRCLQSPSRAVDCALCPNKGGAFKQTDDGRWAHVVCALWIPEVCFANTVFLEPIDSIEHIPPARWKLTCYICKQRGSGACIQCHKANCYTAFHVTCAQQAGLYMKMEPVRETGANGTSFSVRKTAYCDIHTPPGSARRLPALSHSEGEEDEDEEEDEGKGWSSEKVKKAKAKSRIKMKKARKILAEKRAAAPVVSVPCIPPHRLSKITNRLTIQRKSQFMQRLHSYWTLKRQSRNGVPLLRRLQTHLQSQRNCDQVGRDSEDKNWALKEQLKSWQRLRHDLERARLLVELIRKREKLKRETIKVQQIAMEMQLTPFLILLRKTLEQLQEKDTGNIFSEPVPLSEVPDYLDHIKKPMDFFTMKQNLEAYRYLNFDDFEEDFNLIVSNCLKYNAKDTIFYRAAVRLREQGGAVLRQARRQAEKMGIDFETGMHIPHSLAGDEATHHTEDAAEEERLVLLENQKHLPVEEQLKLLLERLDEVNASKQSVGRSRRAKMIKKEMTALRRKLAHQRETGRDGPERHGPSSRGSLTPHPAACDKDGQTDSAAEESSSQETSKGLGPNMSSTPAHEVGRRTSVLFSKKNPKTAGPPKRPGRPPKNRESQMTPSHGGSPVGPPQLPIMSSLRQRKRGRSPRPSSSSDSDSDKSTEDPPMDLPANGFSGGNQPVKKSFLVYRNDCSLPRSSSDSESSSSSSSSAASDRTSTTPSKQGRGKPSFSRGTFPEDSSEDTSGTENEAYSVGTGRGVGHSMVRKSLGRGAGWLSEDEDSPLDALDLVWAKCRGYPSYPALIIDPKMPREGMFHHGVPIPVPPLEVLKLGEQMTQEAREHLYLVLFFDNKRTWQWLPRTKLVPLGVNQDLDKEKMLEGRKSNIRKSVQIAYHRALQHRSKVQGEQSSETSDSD

[13] = target: Histone acetyltransferase KAT2A (Homo sapiens, UniProt Q92830); test: Binding affinity to KAT2A in human HUT78 cells incubated for 45 mins by mass spectrometry based bromosphere chemoproteomic assay; assay type: cell-based
Sequence of Histone acetyltransferase KAT2A (Q92830 whole entry): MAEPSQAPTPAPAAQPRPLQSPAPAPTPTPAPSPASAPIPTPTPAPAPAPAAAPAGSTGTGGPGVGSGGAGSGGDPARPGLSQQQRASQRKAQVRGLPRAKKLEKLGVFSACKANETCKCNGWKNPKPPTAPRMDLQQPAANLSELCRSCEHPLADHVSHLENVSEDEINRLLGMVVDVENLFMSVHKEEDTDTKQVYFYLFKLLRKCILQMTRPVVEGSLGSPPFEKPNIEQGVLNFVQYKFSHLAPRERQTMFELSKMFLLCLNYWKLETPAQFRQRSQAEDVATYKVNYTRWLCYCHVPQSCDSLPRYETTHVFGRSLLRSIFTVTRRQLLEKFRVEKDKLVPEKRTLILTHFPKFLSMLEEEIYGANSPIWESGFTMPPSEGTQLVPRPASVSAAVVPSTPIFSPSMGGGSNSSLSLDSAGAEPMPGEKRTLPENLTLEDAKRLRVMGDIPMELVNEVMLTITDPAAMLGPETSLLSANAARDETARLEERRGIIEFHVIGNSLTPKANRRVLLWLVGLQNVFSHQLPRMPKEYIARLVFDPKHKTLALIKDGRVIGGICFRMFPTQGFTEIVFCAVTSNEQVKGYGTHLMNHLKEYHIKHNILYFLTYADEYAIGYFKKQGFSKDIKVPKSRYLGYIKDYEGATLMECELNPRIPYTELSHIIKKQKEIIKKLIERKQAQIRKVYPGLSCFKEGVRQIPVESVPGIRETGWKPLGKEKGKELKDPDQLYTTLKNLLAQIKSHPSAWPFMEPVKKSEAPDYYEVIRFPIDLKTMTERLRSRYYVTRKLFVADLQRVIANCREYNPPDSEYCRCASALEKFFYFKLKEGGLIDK

[14] = target: T6, Bromodomain-containing protein 9 (Homo sapiens, UniProt Q9H8M2); test: Binding affinity to BRD9 in human HUT78 cells incubated for 45 mins by mass spectrometry based bromosphere chemoproteomic assay; assay type: cell-based
T6 sequence (Q9H8M2 whole entry): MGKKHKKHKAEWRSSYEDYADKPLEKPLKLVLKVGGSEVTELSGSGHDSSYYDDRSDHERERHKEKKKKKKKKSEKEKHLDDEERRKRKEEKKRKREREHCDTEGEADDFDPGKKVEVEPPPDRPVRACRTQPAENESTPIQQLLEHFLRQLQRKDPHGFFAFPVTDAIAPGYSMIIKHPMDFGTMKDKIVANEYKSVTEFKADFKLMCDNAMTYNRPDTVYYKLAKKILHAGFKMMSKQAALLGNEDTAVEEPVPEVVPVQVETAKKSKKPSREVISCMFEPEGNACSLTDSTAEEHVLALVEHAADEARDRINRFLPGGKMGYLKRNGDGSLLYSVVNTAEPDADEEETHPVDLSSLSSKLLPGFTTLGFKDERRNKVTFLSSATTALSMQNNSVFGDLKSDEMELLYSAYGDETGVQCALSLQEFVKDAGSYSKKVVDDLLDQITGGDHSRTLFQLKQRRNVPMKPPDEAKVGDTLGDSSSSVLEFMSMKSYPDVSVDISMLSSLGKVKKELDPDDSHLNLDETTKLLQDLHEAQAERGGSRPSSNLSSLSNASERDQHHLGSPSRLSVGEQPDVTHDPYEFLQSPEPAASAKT

[15] = target: Transcription initiation factor TFIID subunit 1 (Homo sapiens, UniProt P21675); test: Binding affinity to TAF1 in human HUT78 cells incubated for 45 mins by mass spectrometry based bromosphere chemoproteomic assay; assay type: cell-based
[16] = target: T2, Bromodomain-containing protein 3; test: Binding affinity to BRD3 in human HUT78 cells incubated for 45 mins by mass spectrometry based bromosphere chemoproteomic assay; assay type: cell-based
[17] = target: Bromodomain-containing protein 2 (Homo sapiens, UniProt P25440); test: Binding affinity to BRD2 in human HUT78 cells incubated for 45 mins by mass spectrometry based bromosphere chemoproteomic assay; assay type: cell-based
Sequence of Bromodomain-containing protein 2 (P25440 whole entry, the tested form may be a part): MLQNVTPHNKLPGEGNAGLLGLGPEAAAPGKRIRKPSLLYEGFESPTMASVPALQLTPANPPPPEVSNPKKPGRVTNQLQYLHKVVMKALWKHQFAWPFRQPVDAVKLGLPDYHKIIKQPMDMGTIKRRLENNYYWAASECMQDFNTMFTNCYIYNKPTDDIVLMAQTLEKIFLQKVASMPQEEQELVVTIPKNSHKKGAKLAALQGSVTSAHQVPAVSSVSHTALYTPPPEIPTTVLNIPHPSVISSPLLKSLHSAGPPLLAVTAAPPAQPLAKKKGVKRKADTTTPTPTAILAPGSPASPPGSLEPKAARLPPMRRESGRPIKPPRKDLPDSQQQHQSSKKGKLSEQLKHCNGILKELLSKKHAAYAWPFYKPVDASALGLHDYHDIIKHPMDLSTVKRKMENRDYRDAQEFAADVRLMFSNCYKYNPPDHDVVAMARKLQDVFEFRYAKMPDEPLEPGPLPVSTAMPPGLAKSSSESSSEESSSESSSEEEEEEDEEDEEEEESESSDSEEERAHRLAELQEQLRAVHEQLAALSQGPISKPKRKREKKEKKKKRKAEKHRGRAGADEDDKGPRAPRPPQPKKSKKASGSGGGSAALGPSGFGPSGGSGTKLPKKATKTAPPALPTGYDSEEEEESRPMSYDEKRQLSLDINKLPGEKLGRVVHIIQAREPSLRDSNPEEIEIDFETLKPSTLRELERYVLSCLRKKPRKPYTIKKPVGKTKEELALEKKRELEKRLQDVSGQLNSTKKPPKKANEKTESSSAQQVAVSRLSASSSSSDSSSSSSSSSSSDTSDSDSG

[18] = target: Bromodomain adjacent to zinc finger domain protein 2A (Homo sapiens, UniProt Q9UIF9); test: Binding affinity to BAZ2A in human HUT78 cells incubated for 45 mins by mass spectrometry based bromosphere chemoproteomic assay; assay type: cell-based
Sequence of Bromodomain adjacent to zinc finger domain protein 2A (Q9UIF9 whole entry, the tested form may be a part): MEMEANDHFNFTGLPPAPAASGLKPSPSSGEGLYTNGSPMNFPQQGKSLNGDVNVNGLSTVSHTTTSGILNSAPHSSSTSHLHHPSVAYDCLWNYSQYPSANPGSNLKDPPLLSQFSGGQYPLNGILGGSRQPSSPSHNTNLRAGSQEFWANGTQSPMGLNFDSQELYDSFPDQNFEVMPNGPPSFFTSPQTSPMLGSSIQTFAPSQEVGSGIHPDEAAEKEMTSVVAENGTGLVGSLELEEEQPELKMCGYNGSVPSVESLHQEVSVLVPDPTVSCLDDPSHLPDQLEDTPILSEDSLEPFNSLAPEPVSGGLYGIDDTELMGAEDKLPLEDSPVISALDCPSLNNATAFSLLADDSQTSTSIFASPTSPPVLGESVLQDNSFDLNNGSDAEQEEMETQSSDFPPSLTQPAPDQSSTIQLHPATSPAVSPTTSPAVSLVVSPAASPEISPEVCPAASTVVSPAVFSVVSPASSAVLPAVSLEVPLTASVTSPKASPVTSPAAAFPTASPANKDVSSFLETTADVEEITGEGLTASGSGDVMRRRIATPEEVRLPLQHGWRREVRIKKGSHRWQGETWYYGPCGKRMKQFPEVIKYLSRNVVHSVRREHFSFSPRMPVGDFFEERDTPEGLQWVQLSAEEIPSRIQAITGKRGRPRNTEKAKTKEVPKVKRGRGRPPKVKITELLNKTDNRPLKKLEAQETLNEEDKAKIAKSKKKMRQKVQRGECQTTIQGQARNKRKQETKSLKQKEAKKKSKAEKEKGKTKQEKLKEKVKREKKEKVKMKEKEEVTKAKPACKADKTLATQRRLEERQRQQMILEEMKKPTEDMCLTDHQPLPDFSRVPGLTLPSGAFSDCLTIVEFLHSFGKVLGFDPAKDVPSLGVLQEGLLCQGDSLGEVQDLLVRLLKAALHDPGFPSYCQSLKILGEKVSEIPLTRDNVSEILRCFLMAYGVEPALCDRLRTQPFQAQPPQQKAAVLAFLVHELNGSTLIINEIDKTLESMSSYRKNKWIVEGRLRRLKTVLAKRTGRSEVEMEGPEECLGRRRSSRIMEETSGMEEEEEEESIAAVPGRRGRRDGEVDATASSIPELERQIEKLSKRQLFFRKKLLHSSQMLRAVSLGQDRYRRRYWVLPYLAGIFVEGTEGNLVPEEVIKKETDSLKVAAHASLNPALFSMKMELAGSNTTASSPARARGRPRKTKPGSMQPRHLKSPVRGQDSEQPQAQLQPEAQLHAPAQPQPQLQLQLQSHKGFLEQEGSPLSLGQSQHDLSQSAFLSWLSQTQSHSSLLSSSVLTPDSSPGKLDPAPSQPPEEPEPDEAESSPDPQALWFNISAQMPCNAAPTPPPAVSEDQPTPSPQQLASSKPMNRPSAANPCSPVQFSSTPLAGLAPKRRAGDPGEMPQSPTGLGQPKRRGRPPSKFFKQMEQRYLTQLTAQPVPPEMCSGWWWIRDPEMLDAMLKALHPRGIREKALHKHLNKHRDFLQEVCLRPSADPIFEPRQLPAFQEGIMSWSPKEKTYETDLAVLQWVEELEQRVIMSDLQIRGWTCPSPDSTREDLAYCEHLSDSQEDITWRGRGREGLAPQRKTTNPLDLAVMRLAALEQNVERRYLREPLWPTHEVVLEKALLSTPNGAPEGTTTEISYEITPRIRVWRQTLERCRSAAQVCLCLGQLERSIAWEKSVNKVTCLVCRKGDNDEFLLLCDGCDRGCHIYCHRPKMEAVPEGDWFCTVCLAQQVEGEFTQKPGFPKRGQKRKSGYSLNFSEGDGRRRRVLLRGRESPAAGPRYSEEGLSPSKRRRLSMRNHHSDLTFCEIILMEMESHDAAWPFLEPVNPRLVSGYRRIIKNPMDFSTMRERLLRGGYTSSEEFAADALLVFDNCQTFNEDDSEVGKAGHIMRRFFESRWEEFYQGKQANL

[19] = target: Nucleosome-remodeling factor subunit BPTF (Homo sapiens, UniProt Q12830); test: Binding affinity to BPTF in human HUT78 cells incubated for 45 mins by mass spectrometry based bromosphere chemoproteomic assay; assay type: cell-based
[20] = target: Protein polybromo-1 (Homo sapiens, UniProt Q86U86); test: Binding affinity to PBRM1 in human HUT78 cells incubated for 45 mins by mass spectrometry based bromosphere chemoproteomic assay; assay type: cell-based
[21] = target: Histone acetyltransferase KAT2B (Homo sapiens, UniProt Q92831); test: Binding affinity to KAT2B in human HUT78 cells incubated for 45 mins by mass spectrometry based bromosphere chemoproteomic assay; assay type: cell-based
[22] = target: T3, Bromodomain testis-specific protein; test: Binding affinity to BRDT in human HUT78 cells incubated for 45 mins by mass spectrometry based bromosphere chemoproteomic assay; assay type: cell-based
[23] = target: Bromodomain-containing protein 7 (Homo sapiens, UniProt Q9NPI1); test: Binding affinity to BRD7 in human HUT78 cells incubated for 45 mins by mass spectrometry based bromosphere chemoproteomic assay; assay type: cell-based
Sequence of Bromodomain-containing protein 7 (Q9NPI1 whole entry): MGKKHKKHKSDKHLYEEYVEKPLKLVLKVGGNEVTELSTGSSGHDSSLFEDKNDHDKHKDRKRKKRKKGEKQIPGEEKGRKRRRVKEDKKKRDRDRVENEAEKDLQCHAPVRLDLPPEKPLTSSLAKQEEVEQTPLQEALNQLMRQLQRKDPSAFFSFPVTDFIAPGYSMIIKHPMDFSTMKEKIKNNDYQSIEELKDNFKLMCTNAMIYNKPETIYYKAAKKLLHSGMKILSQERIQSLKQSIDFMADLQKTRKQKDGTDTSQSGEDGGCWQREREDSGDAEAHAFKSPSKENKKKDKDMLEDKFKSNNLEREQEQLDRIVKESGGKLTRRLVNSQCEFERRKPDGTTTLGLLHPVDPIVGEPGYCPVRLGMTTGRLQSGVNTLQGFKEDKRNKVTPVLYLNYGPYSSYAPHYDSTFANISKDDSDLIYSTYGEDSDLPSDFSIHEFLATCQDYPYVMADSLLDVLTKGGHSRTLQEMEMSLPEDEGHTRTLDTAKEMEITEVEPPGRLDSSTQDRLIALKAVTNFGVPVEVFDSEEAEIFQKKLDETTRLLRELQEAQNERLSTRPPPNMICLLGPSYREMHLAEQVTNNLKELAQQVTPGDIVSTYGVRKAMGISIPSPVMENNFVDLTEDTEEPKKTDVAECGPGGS

[24] = target: Tyrosine-protein kinase BAZ1B (Homo sapiens, UniProt Q9UIG0); test: Binding affinity to BAZ1B in human HUT78 cells incubated for 45 mins by mass spectrometry based bromosphere chemoproteomic assay; assay type: cell-based

IC50 [1] [nM]	Papp at 3 h [2] [×10⁻⁶ cm/s]	solubility kinetic at 1 h [3] [µM]	IC50 [4] [nM]	IC50 [5] [nM]	Compound	further results
200	< 0.3	≥ 465	251	6310	Cc1cc2c(-c3cccnc3)cnc(N[C@@H]3CCNC[C@H]3OCC3CCOCC3)c2[nH]c1=O	–
251	3.25	254 (≈ 118 µg/mL)	316	10000	Cc1cncc(-c2cnc(N[C@@H]3CCNC[C@H]3OCC3CCOCC3)c3[nH]c(=O)c(C)cc23)c1	–
–	< 0.3	179 (≈ 91.6 µg/mL)	–	15800	Cc1cncc(-c2cnc(N[C@@H]3CCNC[C@H]3OCC3CCS(=O)(=O)CC3)c3[nH]c(=O)c(C)cc23)c1	IC50 [6]: > 50100 nM; IC50 [7]: > 50100 nM; chromatographic logD [8]: 1.6; IC50 [9]: > 50100 nM; IC50 [10]: 5010 nM; IC50 [11]: 15800 nM
316	3.35	≥ 418	251	7940	COc1cncc(-c2cnc(N[C@@H]3CCNC[C@H]3OCC3CCOCC3)c3[nH]c(=O)c(C)cc23)c1	–
794	< 0.3	≥ 414	1000	50100	Cc1cc2c(-c3cncnc3)cnc(N[C@@H]3CCNC[C@H]3OCC3CCOCC3)c2[nH]c1=O	–
–	13.8	170 (≈ 78.5 µg/mL)	–	–	Cc1cncc(-c2cnc(N[C@@H]3CCNC[C@H]3OCC3CCCCC3)c3[nH]c(=O)c(C)cc23)c1	Kd [12]: > 100000 nM; Kd [13]: > 100000 nM; Kd [14]: 15800 nM; chromatographic logD [8]: 4; Kd [15]: 31600 nM; Kd [16]: 2000 nM; Kd [17]: 3160 nM; Kd [18]: > 100000 nM; Kd [19]: > 100000 nM; Kd [20]: > 100000 nM

Further lines, the compound ahead of its results:

Compound	IC50 [1] [nM]	Papp at 3 h [2] [×10⁻⁶ cm/s]	solubility kinetic at 1 h [3] [µM]	IC50 [4] [nM]	IC50 [5] [nM]	further results
Cc1cc2c(-c3cccnc3)cnc(N[C@@H]3CCNC[C@H]3OCC3CCS(=O)(=O)CC3)c2[nH]c1=O	100	< 0.3	≥ 315	126	10000	–
COc1cncc(-c2cnc(N[C@@H]3CCNC[C@H]3OCC3CCS(=O)(=O)CC3)c3[nH]c(=O)c(C)cc23)c1	100	< 0.3	≥ 269	126	7940	–
Cc1cncc(-c2ccc(N[C@@H]3CCNC[C@H]3OCC3CCS(=O)(=O)CC3)c3[nH]c(=O)c(C)cc23)c1	–	–	–	–	–	Kd [12]: 25100 nM; Kd [21]: > 100000 nM; Kd [22]: 2000 nM; Kd [13]: > 100000 nM; Kd [14]: 1260 nM; Kd [15]: 1580 nM; Kd [16]: 1000 nM; Kd [17]: 631 nM; Kd [18]: 3980 nM; Kd [19]: > 100000 nM; Kd [20]: 2510 nM; Kd [23]: 3160 nM; Kd [24]: > 100000 nM
Cc1cncc(-c2cnc(N[C@@H]3CCNC[C@H]3OC[C@H]3C[C@@H](C)S(=O)(=O)[C@@H](C)C3)c3[nH]c(=O)c(C)cc23)c1	63.1	< 0.3	30 (≈ 16.2 µg/mL)	100	25100	–
CCc1cc2c(-c3cncc(C)c3)cnc(N[C@@H]3CCNC[C@H]3OCC3CCS(=O)(=O)CC3)c2[nH]c1=O	50.1	< 0.3	323 (≈ 170 µg/mL)	79.4	10000	–
